# Data from patent publication US12187733B1, “5-(Substitutedphenyl)-7-Imino-7,8-Dihydropyrimido[4,5-d]pyrimidine-2,4(1H,3H)-dione analogues as anti-inflammatory agents” (KING FAISAL UNIVERSITY, priority 2023, dated 2025).
# Test: Anti-inflammatory activity
# Description: Anti-Inflammatory Activity
row,SMILES,IC50 [nM]
1,"[H]/N=c1\nc(-c2cccc(OCc3ccccc3)c2)c2c(=O)[nH]c(=O)[nH]c2[nH]1 [Compound 4a, 5-(3-(Benzyloxy)phenyl)-7-imino-7,8-dihydropyrimido[4,5-d]pyrimidine-2,4 (^1H,3H)-dione]",248
2,"[H]/N=c1\nc(-c2ccc(OCc3ccccc3)cc2)c2c(=O)[nH]c(=O)[nH]c2[nH]1 [Compound 4b, 5-(4-(Benzyloxy)phenyl)-7-imino-7,8-dihydropyrimido[4,5-d]pyrimidine-2,4 (^1H,3H)-dione]",90.9
3,"[H]/N=c1\nc(-c2ccc(OC)c(O)c2)c2c(=O)[nH]c(=O)[nH]c2[nH]1 [Compound 4c, 5-(3-Hydroxy-4-methoxyphenyl)-7-imino-7,8-dihydropyrimido[4,5-d]pyrimidine-2,4 (^1H,3H)-dione]",218
4,"[H]/N=c1\nc(-c2ccc(OC)c(O)c2)c2c(=O)n(C)c(=O)n(C)c2[nH]1 [Compound 4d, 5-(3-Hydroxy-4-methoxyphenyl)-7-imino-1,3-dimethyl-7,8-dihydropyrimido[4,5-d]pyrimid-ine-2,4 (^1H,3H)-dione]",106
